Test results as given in DBAASP.
≈ marks a conversion by molar mass, not a printed value. Each block holds one compound with its values, some of them ahead of it.

Experiments:
Assay in all cases: ≥ marks a high value that may be exact or a test limit, other limits are often not marked, values filed in µg/mL are converted to µM
[1] = tested on: Pseudomonas aeruginosa 5106
[2] = tested on: Klebsiella pneumoniae 913
Escherichia coli 4530 = tested on: Escherichia coli 4530
Acinetobacter baumannii = tested on: Acinetobacter baumannii
[3] = tested on: Streptococcus pneumoniae ATCC 49619
Salmonella typhimurium = tested on: Salmonella typhimurium
[4] = tested on: Escherichia coli ATCC 25922
[5] = tested on: Enterobacter cloacae 2524
Escherichia coli 170 = tested on: Escherichia coli 170
[6] = tested on: Staphylococcus aureus ATCC 25923
[7] = tested on: Pseudomonas aeruginosa 4677
[8] = tested on: Pseudomonas aeruginosa 3599
Escherichia coli 5580 = tested on: Escherichia coli 5580
[9] = tested on: Klebsiella pneumoniae ST258
[10] = tested on: Pseudomonas aeruginosa ATCC 27853
[11] = tested on: Bacillus megaterium ATCC 19213
[12] = tested on: Bacillus subtilis NBRC 3513
[13] = tested on: Staphylococcus aureus NBRC 12732
[14] = tested on: Staphylococcus epidermidis NBRC 12933
Proteus vulgaris = tested on: Proteus vulgaris
[15] = tested on: Escherichia coli KCTC 1682
[16] = tested on: Staphylococcus aureus KCTC 1621
[17] = tested on: Bacillus megaterium KCTC 1096
[18] = tested on: Pseudomonas aeruginosa KCTC 1637
[19] = tested on: Bacillus subtilis KCTC 1918
Escherichia coli U16318 = tested on: Escherichia coli U16318
[20] = tested on: Cryptococcus neoformans B3501
[21] = tested on: Escherichia coli O157:H7 ATCC 43895
[22] = tested on: Staphylococcus aureus B38302
[23] = tested on: Candida parapsilosis IOC 4564
[24] = tested on: Trichophyton rubrum IOC 4527
Candida krusei IOC 4559 = tested on: Candida krusei IOC 4559
Escherichia coli SBS 363 = tested on: Escherichia coli SBS 363
[25] = tested on: Candida glabrata IOC 4565
[26] = tested on: Candida tropicalis IOC 4560
[27] = tested on: Cryptococcus neoformans ATCC 90112
[28] = tested on: Candida albicans IOC 4558
[29] = tested on: Trichosporon sp. IOC 4569
[30] = tested on: Cryptococcus neoformans IOC 4528
[31] = tested on: Candida albicans ATCC 36802
[32] = tested on: Staphylococcus aureus ATCC 29213
[33] = tested on: Aspergillus fumigatus IOC 4526
Escherichia coli 37 = tested on: Escherichia coli 37
Escherichia coli 117 = tested on: Escherichia coli 117
Staphylococcus aureus 37 = tested on: Staphylococcus aureus 37
[34] = tested on: Enterococcus faecalis ATCC 29212
[35] = tested on: Candida parapsilosis ATCC 22019
[36] = tested on: Candida albicans ATCC 90028
Staphylococcus aureus 10 = tested on: Staphylococcus aureus 10
Pseudomonas aeruginosa = tested on: Pseudomonas aeruginosa
Klebsiella pneumoniae = tested on: Klebsiella pneumoniae
[37] = tested on: Klebsiella pneumoniae ATCC 700603
Shigella dysenteriae = tested on: Shigella dysenteriae
[38] = tested on: Candida albicans ATCC 2002
[39] = tested on: Enterobacter cloacae ATCC 13047
[40] = tested on: Pseudomonas aeruginosa CMCCB 1010

MIC [11]: ≥ 128 µM | MIC [12]: ≥ 128 µM | MIC [13]: ≥ 128 µM | MIC [14]: ≥ 128 µM
SMILES: CC(C)C[C@H](NC(=O)[C@@H](N)CCCCN)C(=O)NCC(=O)N[C@@H](Cc1cnc[nH]1)C(=O)N[C@@H](Cc1cnc[nH]1)C(=O)NCC(=O)N[C@@H](CCCN=C(N)N)C(=O)N[C@@H](C)C(=O)N1CCC[C@H]1C(=O)N1CCC[C@H]1C(=O)O [KLGHHGRAPP]

MIC (Proteus vulgaris): 3.12 µM (≈ 5.54 µg/mL) | MIC [15]: 8.84 µM (≈ 15.7 µg/mL) | MIC [16]: 6.25 µM (≈ 11.1 µg/mL) | MIC [17]: 3.12 µM (≈ 5.54 µg/mL) | MIC [18]: 12.5 µM (≈ 22.2 µg/mL) | MIC [19]: 1.56 µM (≈ 2.77 µg/mL)
SMILES: CC[C@H](C)[C@H](NC(=O)[C@H](CCCCN)NC(=O)[C@H](CCCCN)NC(=O)[C@H](Cc1ccccc1)NC(=O)[C@H](CC(C)C)NC(=O)[C@H](CCCCN)NC(=O)[C@H](Cc1c[nH]c2ccccc12)NC(=O)[C@@H](N)CCCCN)C(=O)N1CCC[C@H]1C(=O)N[C@@H](CC(C)C)C(=O)N[C@@H](C)C(=O)N[C@@H](CCCCN)C(=O)N[C@@H](CCCCN)C(=O)N[C@@H](Cc1ccccc1)C(N)=O [KWKLFKKIPLAKKF]

MIC [23]: ≥ 41.6 µM | MIC [24]: ≥ 52 µM | MIC (Candida krusei IOC 4559): 29.4 µM (≈ 56.6 µg/mL) | MIC (Escherichia coli SBS 363): ≥ 41.6 µM | MIC [25]: ≥ 41.6 µM | MIC [26]: ≥ 41.6 µM | MIC [27]: 4.41 µM (≈ 8.49 µg/mL) | MIC [28]: ≥ 41.6 µM | MIC [29]: ≥ 41.6 µM | MIC [30]: 4.41 µM (≈ 8.49 µg/mL) | MIC [31]: ≥ 52 µM | MIC [32]: > 41.6 µM | MIC [33]: ≥ 52 µM | MIC [10]: > 41.6 µM
SMILES: CC[C@H](C)[C@H](NC(=O)[C@H](CCCCN)NC(=O)[C@H](CCC(=O)O)NC(=O)[C@H](CCCCN)NC(=O)[C@@H]1CCCN1C(=O)[C@H](Cc1ccccc1)NC(=O)[C@H](CO)NC(=O)[C@H](Cc1cnc[nH]1)NC(=O)CNC(=O)CNC(=O)[C@H](CCCCN)NC(=O)[C@H](CCCCN)NC(=O)[C@H](Cc1cnc[nH]1)NC(=O)[C@H](CO)NC(=O)[C@H](CCC(N)=O)NC(=O)[C@@H](N)CCCCN)C(=O)N[C@@H](CO)C(=O)O [KQSHKKGGHSFPKEKIS]

The next lines start with the compound.

SMILES: CC[C@H](C)[C@H](NC(=O)CN)C(=O)N[C@@H](CC(C)C)C(=O)N[C@@H](CCCCN)C(=O)N[C@H](C(=O)N[C@H](C(=O)N[C@@H](CCCCN)C(=O)N[C@@H](CO)C(=O)N[C@H](C(=O)N[C@@H](C)C(=O)N[C@@H](CO)C(=O)N[C@@H](CCCCN)C(=O)N[C@H](C(=O)N[C@@H](C)C(=O)N[C@@H](CC(N)=O)C(=O)N[C@H](C(=O)N[C@H](C(=O)N[C@@H](CCC(N)=O)C(=O)N[C@@H](CCCCN)C(=O)N[C@@H](CC(C)C)C(=O)N[C@@H](CCCCN)C(=O)N[C@@H](CCCN=C(N)N)C(=O)N[C@@H](CCCCN)C(=O)N[C@@H](C)C(=O)N[C@@H](CCCCN)C(=O)N[C@@H](CC(N)=O)C(=O)N[C@@H](C)C(=O)N[C@H](C(=O)O)C(C)C)C(C)C)[C@@H](C)O)C(C)C)[C@@H](C)CC)[C@@H](C)CC)[C@@H](C)O [GILKTIKSIASKVANTVQKLKRKAKNAV]
MIC [1]: 12 µM (≈ 36.1 µg/mL) | MIC [2]: 3.1 µM (≈ 9.33 µg/mL) | MIC (Escherichia coli 4530): 3.1 µM (≈ 9.33 µg/mL) | MIC (Acinetobacter baumannii): 3.1 µM (≈ 9.33 µg/mL) | MIC [3]: ≥ 50 µM | MIC (Salmonella typhimurium): 2.23 µM (≈ 6.7 µg/mL) | MIC [4]: 1.6 µM (≈ 4.81 µg/mL) | MIC [5]: 3.1 µM (≈ 9.33 µg/mL) | MIC (Escherichia coli 170): 0.8 µM (≈ 2.41 µg/mL) | MIC [6]: > 16.6 µM | MIC [7]: 6.2 µM (≈ 18.7 µg/mL) | MIC [8]: ≥ 50 µM | MIC (Escherichia coli 5580): 1.6 µM (≈ 4.81 µg/mL) | MIC [9]: 16.6 µM (≈ 50 µg/mL) | MIC [10]: 8.31 µM (≈ 25 µg/mL)

SMILES: CC(C)C[C@H](NC(=O)[C@H](C)N)C(=O)N[C@@H](Cc1c[nH]c2ccccc12)C(=O)N[C@@H](CCCCN)C(=O)N[C@H](C(=O)N[C@@H](CC(C)C)C(=O)N[C@@H](CC(C)C)C(=O)N[C@@H](CCCCN)C(=O)N[C@@H](CCCCN)C(=O)N[C@H](C(N)=O)C(C)C)[C@@H](C)O [ALWKTLLKKV]
MIC (Escherichia coli U16318): ≥ 50 µM | MIC [20]: 30 µM (≈ 36 µg/mL) | MIC [21]: ≥ 32 µM | MIC [22]: ≥ 50 µM

SMILES: CC[C@H](C)[C@H](NC(=O)[C@@H](NC(=O)[C@@H]1CCCN1C(=O)[C@H](CC(C)C)NC(=O)[C@@H](N)Cc1ccccc1)[C@@H](C)CC)C(=O)NCC(=O)N[C@@H](CCCCN)C(=O)N[C@@H](CC(C)C)C(=O)N[C@@H](CC(C)C)C(=O)N[C@@H](CO)C(=O)NCC(=O)O [FLPIIGKLLSG]
MIC (Escherichia coli 37): 17.3 µM (≈ 20 µg/mL) | MIC (Escherichia coli 117): 4.32 µM (≈ 5 µg/mL) | MIC (Staphylococcus aureus 37): 4.32 µM (≈ 5 µg/mL) | MIC [34]: 17.3 µM (≈ 20 µg/mL) | MIC [35]: 4.32 µM (≈ 5 µg/mL) | MIC [36]: 17.3 µM (≈ 20 µg/mL) | MIC (Staphylococcus aureus 10): 8.64 µM (≈ 10 µg/mL) | MIC (Pseudomonas aeruginosa): 8.64 µM (≈ 10 µg/mL) | MIC [4]: 4.32 µM (≈ 5 µg/mL) | MIC (Klebsiella pneumoniae): 69.1 µM (≈ 80 µg/mL) | MIC [37]: 8.64 µM (≈ 10 µg/mL) | MIC (Shigella dysenteriae): 4.32 µM (≈ 5 µg/mL) | MIC [6]: 2.16 µM (≈ 2.5 µg/mL) | MIC [38]: 8.64 µM (≈ 10 µg/mL) | MIC [39]: 2.16 µM (≈ 2.5 µg/mL) | MIC [40]: 17.3 µM (≈ 20 µg/mL) | MIC [10]: 34.6 µM (≈ 40 µg/mL)
